Source: article PMC11477621, “Design, Synthesis, and Biological Evaluation of HDAC Inhibitors Containing Natural Product-Inspired N-Linked 2-Acetylpyrrole Cap” (Molecules, 2024)

Columns and labels:
[1] = test system: HCT-116 (human colon cancer cell line); test: CCK8 cell viability assay, HCT-116; format: cell-based; settings: 72 h, read-out: Proliferation inhibition IC50 ± SD, HCT-116
Experimental: (§1) The CCK8 (#AC11L054, Life ilab, Shanghai, China) method was used to detect the cells’ proliferation. Cells were seeded into a 96-well culture plate at an appropriate density. […] IC50 values were estimated using the four-parameter method. Each set of experiments was repeated independently three times with three replicate wells per concentration each time.

[2] = test system: RPMI-8226 (human myeloma cell line); test: CCK8 cell viability assay, RPMI-8226; format: cell-based; settings: 72 h, read-out: Proliferation inhibition IC50 ± SD, RPMI-8226
Experimental: as §1

[3] = test system: Ac-tubulin in RPMI-8226 cells; test: Western blot of Ac-tubulin; format: cell-based, human; settings: tested concentrations, 24 h
Experimental: RPMI-8226 cells were seeded in six-well plates and treated with compounds for 24 h. Cells were lysed with 1× SDS loading buffer (50 mM Tris pH 6.8, 100 mM DTT, 2% SDS, 0.1% bromophenol blue, 10% glycerol), and then centrifuged at 12,000 rpm for 5 min at 4 °C. Cell extracts were probed with antibodies Ac-Tubulin (#5335T, CST, Kansas City, MO, USA), α-Tubulin (#2144S, CST, Kansas City, MO, USA), AcH3 (#ab39139, active motif, Carlsbad, CA, USA), Histone H3 (#17168-1-AP, Proteintech, Chicago, IL, USA), GAPDH (#60004-1-1g, Proteintech, Chicago, IL, USA), Goat Anti-Mouse IgG, H&L Chain Specific Peroxidase Conjugate (#401215, Calbiochem, Darmstadt, Germany), Goat Anti-Rabbit IgG, or H&L Chain Specific Peroxidase Conjugate (#401353, Calbiochem, Germany), then detected using Bio-RAD power pal Basic (#041BR66615, BioRad Laboratories, Hercules, CA, USA), Bio-RAD Mini-PROTEAN Tetrade System (#IEC/EN 61010-1, BioRad Laboratories, Hercules, CA, USA), or Bio-RAD Chemi Touch Imagin (BioRad Laboratories, Hercules, CA, USA).

[4] = test system: HL-60 (human leukemia cell line); test: CCK8 cell viability assay, HL-60; format: cell-based; settings: 72 h, read-out: Proliferation inhibition IC50 ± SD, HL-60
Experimental: as §1

HDAC6 = molecular target: T1, HDAC6 (Homo sapiens, UniProt Q9UBN7); test: HDAC inhibition assay (HTRF), HDAC6; format: biochemical; settings: for IC50: read-out: IC50 ± SD, HDAC6
T1 construct: purchased BPS #50006
T1 sequence (Q9UBN7 1-1215): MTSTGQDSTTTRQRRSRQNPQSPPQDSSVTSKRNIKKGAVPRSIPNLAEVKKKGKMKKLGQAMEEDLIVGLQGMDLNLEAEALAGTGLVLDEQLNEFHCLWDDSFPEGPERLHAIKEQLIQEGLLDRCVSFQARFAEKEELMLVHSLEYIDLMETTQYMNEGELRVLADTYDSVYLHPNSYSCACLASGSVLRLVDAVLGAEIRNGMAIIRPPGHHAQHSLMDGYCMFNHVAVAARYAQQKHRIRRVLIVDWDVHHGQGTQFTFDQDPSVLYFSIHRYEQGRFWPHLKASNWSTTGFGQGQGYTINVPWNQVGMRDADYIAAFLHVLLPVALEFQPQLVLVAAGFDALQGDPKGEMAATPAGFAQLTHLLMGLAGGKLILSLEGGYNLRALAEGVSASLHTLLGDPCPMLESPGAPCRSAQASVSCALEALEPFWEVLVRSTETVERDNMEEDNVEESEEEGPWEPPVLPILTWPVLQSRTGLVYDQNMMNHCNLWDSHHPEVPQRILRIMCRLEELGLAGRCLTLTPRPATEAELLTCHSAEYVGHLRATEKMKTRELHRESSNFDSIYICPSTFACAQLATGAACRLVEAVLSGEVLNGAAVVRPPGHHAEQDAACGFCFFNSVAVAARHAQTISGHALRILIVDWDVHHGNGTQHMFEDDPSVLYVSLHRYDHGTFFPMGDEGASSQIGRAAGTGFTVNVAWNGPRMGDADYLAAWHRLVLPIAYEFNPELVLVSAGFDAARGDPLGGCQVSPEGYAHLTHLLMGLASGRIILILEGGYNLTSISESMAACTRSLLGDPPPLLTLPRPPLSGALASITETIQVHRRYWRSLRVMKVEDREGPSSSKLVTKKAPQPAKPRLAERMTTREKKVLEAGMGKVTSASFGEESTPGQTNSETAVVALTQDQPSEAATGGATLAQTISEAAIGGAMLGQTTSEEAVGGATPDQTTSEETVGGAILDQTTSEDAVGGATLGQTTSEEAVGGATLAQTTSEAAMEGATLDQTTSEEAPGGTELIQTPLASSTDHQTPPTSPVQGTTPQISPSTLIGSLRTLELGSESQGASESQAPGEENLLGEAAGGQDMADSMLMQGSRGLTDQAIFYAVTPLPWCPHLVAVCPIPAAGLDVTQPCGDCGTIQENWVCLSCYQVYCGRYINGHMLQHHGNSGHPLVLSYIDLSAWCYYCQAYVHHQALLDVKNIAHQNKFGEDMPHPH
Experimental: (§2) Then, SA-XL665 (#610SAXLG, Cisbio, Bedford, MA, USA) and anti-H3K9me0-Eu(K) (#61KB0KAD, Cisbio, USA) were added. […] The IC50 value of the compounds was calculated using GraphPad 7.0 software. Each set of experiments was independently repeated twice, with two replicate wells per concentration each time.

HDAC1 = molecular target: T2, HDAC1 (Homo sapiens, UniProt Q13547); test: HDAC inhibition assay (HTRF), HDAC1; format: biochemical; settings: for IC50: read-out: IC50 ± SD, HDAC1;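 on all read-outs here: HTRF detection with streptavidin-XL665 plus Eu(K)-labelled anti-H3K9me0 antibody, two independent runs with duplicate wells per concentration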
T2 construct: purchased BPS #50001
T2 sequence (Q13547 whole entry): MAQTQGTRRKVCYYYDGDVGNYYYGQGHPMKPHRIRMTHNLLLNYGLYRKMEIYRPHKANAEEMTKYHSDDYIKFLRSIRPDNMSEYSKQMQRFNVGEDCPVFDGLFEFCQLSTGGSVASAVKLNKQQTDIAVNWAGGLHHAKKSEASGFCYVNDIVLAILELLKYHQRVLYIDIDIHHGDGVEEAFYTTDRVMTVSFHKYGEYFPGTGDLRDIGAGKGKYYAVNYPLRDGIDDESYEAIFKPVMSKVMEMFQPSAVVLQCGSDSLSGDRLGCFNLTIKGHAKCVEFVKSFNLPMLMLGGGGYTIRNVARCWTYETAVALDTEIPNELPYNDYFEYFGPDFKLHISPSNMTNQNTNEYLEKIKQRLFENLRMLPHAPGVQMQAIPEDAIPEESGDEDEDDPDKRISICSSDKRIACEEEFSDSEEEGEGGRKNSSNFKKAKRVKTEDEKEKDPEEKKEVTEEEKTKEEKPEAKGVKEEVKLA
Experimental: as §2

HDAC3 = HDAC3 (Homo sapiens, UniProt O15379); test: HDAC inhibition assay (HTRF), HDAC3;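 further: HTRF detection with streptavidin-XL665 and a Eu cryptate-labelled antibody against unmodified H3K9, two independent runs with duplicate wells at each concentration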
Chain of HDAC3 (O15379 whole entry): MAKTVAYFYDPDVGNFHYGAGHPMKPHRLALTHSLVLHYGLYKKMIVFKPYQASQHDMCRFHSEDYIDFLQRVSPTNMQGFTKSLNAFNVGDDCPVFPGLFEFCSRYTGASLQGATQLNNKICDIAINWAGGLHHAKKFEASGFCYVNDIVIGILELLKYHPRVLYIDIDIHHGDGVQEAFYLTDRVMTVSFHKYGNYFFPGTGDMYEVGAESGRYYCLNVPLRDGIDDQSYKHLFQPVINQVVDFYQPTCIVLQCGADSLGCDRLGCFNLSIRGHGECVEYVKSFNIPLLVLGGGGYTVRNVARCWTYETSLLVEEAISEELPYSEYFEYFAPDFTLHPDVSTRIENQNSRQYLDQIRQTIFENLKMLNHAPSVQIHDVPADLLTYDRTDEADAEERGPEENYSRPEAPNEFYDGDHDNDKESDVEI
Chain of HDAC3 (Q9Y618 395-489 partner limits assumed): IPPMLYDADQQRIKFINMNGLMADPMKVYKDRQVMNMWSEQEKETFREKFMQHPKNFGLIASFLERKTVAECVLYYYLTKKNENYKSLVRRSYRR
Experimental: as §2

[5] = read-out: (%) Inhibition of HDAC3

SMILES | IC50 [1] | IC50 [2] | Ac-α-tubulin protein expression [3] | IC50 [4] | IC50 (HDAC6) | IC50 (HDAC1) | IC50 (HDAC3) | inhibition at 1 µM (HDAC6) | inhibition at 1 µM (HDAC1) | inhibition at 1 µM (HDAC3; [5]) | inhibition at 10 µM (HDAC6; at 10 μM) | inhibition at 10 µM (HDAC1; at 10 μM) | inhibition at 10 µM (HDAC3; [5])
Nc1cc(F)ccc1NC(=O)c1ccc(CNC(=O)/C=C/c2cccnc2)cc1 [Chidamide, reference compound] | 4.67 ± 0.53 µM | 10.2 ± 1.02 µM | no discernible effect | 0.5 ± 0.08 µM |  |  |  |  |  |  |  |  | 
CC(=O)c1cccn1CCCC(=O)NO [Compound 3a, 4-(2-Acetyl-1H-pyrrol-1-yl)-N-hydroxybutanamide] |  |  |  |  | > 10000 nM | > 10000 nM | > 10000 nM |  |  |  |  |  | 
CC(=O)c1cccn1CCCCC(=O)NO [Compound 3b, 5-(2-Acetyl-1H-pyrrol-1-yl)-N-hydroxypentanamide] |  |  |  |  | > 10000 nM | 426 ± 13.8 nM | > 10000 nM |  |  |  |  |  | 
CC(=O)c1cccn1CCCCCC(=O)NO [Compound 3c, 6-(2-Acetyl-1H-pyrrol-1-yl)-N-hydroxyhexanamide] |  |  |  |  | 82.3 ± 15.2 nM | 118 ± 30.8 nM | 138 ± 18.6 nM |  |  |  |  |  | 
CC(=O)c1cccn1CCCCCCC(=O)NO [Compound 3d, 7-(2-Acetyl-1H-pyrrol-1-yl)-N-hydroxyheptanamide] | > 30 µM | > 30 µM |  | > 30 µM | 14.2 ± 1.24 nM | 51.9 ± 6.73 nM | 45.53 ± 0.23 nM |  |  |  |  |  | 
CC(=O)c1cccn1CCCCCCCC(=O)NO [Compound 3e, 8-(2-Acetyl-1H-pyrrol-1-yl)-N-hydroxyoctanamide] |  |  |  |  | 15.5 ± 2.9 nM | 82.4 ± 31.1 nM | 85 ± 1.21 nM |  |  |  |  |  | 
O=C(CCCCCCn1cccc1)NO [Compound 5a, N-hydroxy-7-(1H-pyrrol-1-yl)heptanamide] | 26.4 ± 4.1 µM | > 30 µM |  | 19.8 ± 1.88 µM | 16.4 ± 6.31 nM | 101 ± 25.7 nM | 129 ± 51.6 nM |  |  |  |  |  | 
CCC(=O)c1cccn1CCCCCCC(=O)NO [Compound 5b, N-hydroxy-7-(2-propionyl-1H-pyrrol-1-yl)heptanamide] | 23 ± 7.03 µM | 19.9 ± 7.71 µM |  | 12.9 ± 0.75 µM | 7.67 ± 1.06 nM | 54.2 ± 8.74 nM | 58.2 ± 4.64 nM |  |  |  |  |  | 
COC(=O)c1cccn1CCCCCCC(=O)NO [Compound 5d, Methyl 1-(7-(hydroxyamino)-7-oxoheptyl)-1H-pyrrole-2-carboxylate] | > 30 µM | > 30 µM |  | 21.8 ± 10.7 µM | 11.2 ± 4.76 nM | 52 ± 21.9 nM | 49.5 ± 2.92 nM |  |  |  |  |  | 
O=C(CCCCCCn1cccc1C(=O)c1ccccc1)NO [Compound 5e, 7-(2-Benzoyl-1H-pyrrol-1-yl)-N-hydroxyheptanamide] | 19.8 ± 8.32 µM | 17.9 ± 6.51 µM |  | 7.5 ± 1.55 µM | 9.74 ± 6.37 nM | 13.7 ± 4.39 nM | 3.08 ± 0.97 nM |  |  |  |  |  | 
O=C(CCCCCCn1ccc2ccccc21)NO [Compound 5f, N-hydroxy-7-(1H-indol-1-yl)heptanamide] | > 30 µM | > 30 µM |  | > 30 µM |  |  |  | 92.6% | 96.8% | 94.4% |  |  | 
Cc1ccc2c(ccn2CCCCCCC(=O)NO)c1 [Compound 5g, N-hydroxy-7-(5-methyl-1H-indol-1-yl)heptanamide] | > 30 µM | > 30 µM |  | > 30 µM |  |  |  | 91.5% | 96.1% | 93.5% |  |  | 
O=C(CCCCCCn1ccc2ccc(F)cc21)NO [Compound 5h, 7-(6-Fluoro-1H-indol-1-yl)-N-hydroxyheptanamide] | > 30 µM | > 30 µM |  | > 30 µM |  |  |  | 92.4% | 96.5% | 93.2% |  |  | 
O=C(CCCCCCn1ccc2cc(F)ccc21)NO [Compound 5i, 7-(5-Fluoro-1H-indol-1-yl)-N-hydroxyheptanamide] | > 30 µM | > 30 µM |  | > 30 µM | ≤ 1.7 nM | 4.48 ± 2.43 nM | 1.82 ± 0.78 nM |  |  |  |  |  | 
O=C(CCCCCCn1ccc2cc(Cl)ccc21)NO [Compound 5j, 7-(5-Chloro-1H-indol-1-yl)-N-hydroxyheptanamide] | > 30 µM | > 30 µM |  | > 30 µM |  |  |  | 92.3% | 96.2% | 93.3% |  |  | 
O=C(CCCCCCn1ccc2cc(Br)ccc21)NO [Compound 5k, 7-(5-Bromo-1H-indol-1-yl)-N-hydroxyheptanamide] | > 30 µM | > 30 µM |  | > 30 µM |  |  |  | 90.3% | 96.2% | 92.2% |  |  | 
N#Cc1ccc2c(ccn2CCCCCCC(=O)NO)c1 [Compound 5l, 7-(5-Cyano-1H-indol-1-yl)-N-hydroxyheptanamide] | > 30 µM | > 30 µM |  | > 30 µM | 2.31 ± 0.34 nM | 2.42 ± 0.36 nM | 1.18 ± 0.06 nM |  |  |  |  |  | 
CC(=O)c1cccn1CCc1ccc(C(=O)NO)cc1 [Compound 11, 4-(2-(2-Acetyl-1H-pyrrol-1-yl)ethyl)-N-hydroxybenzamide] | 17.1 ± 8.69 µM | 11.7 ± 1.75 µM |  | 28 ± 0.56 µM |  |  |  |  |  |  | 89.5% | 77.6% | 79.9%
CC(=O)c1cccn1Cc1cn(CCc2ccc(C(=O)Nc3ccc(F)cc3N)cc2)nn1 [Compound 19b, 4-(2-(4-((2-Acetyl-1H-pyrrol-1-yl)methyl)-1H-1,2,3-triazol-1-yl)ethyl)-N-(2-amino-4-fluorophenyl)benzamide] |  |  |  |  | > 10000 nM | > 10000 nM | > 10000 nM |  |  |  |  |  | 
CC(=O)c1cccn1Cc1cn(CCc2ccc(C(=O)Nc3ccc(Cl)cc3N)cc2)nn1 [Compound 19c, 4-(2-(4-((2-Acetyl-1H-pyrrol-1-yl)methyl)-1H-1,2,3-triazol-1-yl)ethyl)-N-(2-amino-4-chlorophenyl)benzamide] |  |  |  |  | > 10000 nM | > 10000 nM | > 10000 nM |  |  |  |  |  | 
CC(=O)c1cccn1Cc1cn(CCc2ccc(C(=O)Nc3cc(F)c(F)cc3N)cc2)nn1 [Compound 19d, 4-(2-(4-((2-Acetyl-1H-pyrrol-1-yl)methyl)-1H-1,2,3-triazol-1-yl)ethyl)-N-(2-amino-4,5-difluorophenyl)benzamide] |  |  |  |  | > 10000 nM | > 10000 nM | > 10000 nM |  |  |  |  |  | 
COc1ccc(NC(=O)c2ccc(CCn3cc(Cn4cccc4C(C)=O)nn3)cc2)c(N)c1 [Compound 19e, 4-(2-(4-((2-Acetyl-1H-pyrrol-1-yl)methyl)-1H-1,2,3-triazol-1-yl)ethyl)-N-(2-amino-4-methoxyphenyl)benzamide] |  |  |  |  | > 10000 nM | > 10000 nM | > 10000 nM |  |  |  |  |  | 
Nc1ccccc1NC(=O)c1ccc(CNC(=O)OCc2cccnc2)cc1 [MS-275, entinostat, reference compound] |  |  | no discernible effect |  |  |  |  |  |  |  |  |  | 
